Measurements reported in publication PMC5365251, “Biophysical assay for tethered signaling reactions reveals tether-controlled activity for the phosphatase SHP-1” (Science Advances, 2017).

Legend:
PEG28-ITIM [1] = test: SPR of SHP-1 injected over immobilised PEG28-ITIM: binding constants (MPDPDE fit); design: species or system mouse; settings: tethered SPR assay with active PTP domain
Procedure: (§1) A construct expressing murine SHP-1 with an N-terminal 6× His tag was provided by M. H. Brown. Mutation of the SH2 domains was performed using a quick-change strategy. The mutations introduced were R30K and R33E for the N-terminal SH2 domain mutant and R136K for the C-terminal SH2 domain mutant previously shown to result in loss of binding ([6]). All peptides were ordered from PeptideSynthetics and were certified to be >95% pure. Peptides sequences were derived from the membrane-proximal ITIM sequence of mouse LAIR-1 receptor.
(§2) Experiments were performed on a Biacore 3000 instrument (GE Healthcare Life Sciences). All experiments were performed at 10°C and with a buffer flow rate of 10 μl/min. The buffer used was Hepes-buffered saline (HBS-EP; GE Healthcare Life Sciences), which contained 10 mM Hepes (pH 7.4), 150 mM NaCl, 3 mM EDTA, and 0.005% Surfactant P20.
(§3) A CM5 sensorchip was coupled with streptavidin to near saturation (typically between 4000 and 7000 RU) using the amine coupling kit (GE Healthcare Life Sciences) as described previously ([42]). After streptavidin was coupled, biotinylated peptides were injected to give the indicated concentrations in experimental flow cells, and excess biotin-binding sites were blocked with biotin in HBS-EP. The molar ratio of peptide to streptavidin was kept below 1:1 to ensure that peptide immobilization was random and not clustered on the tetravalent streptavidin molecules. Reference flow cells were treated with buffer and then blocked with biotin; pilot experiments using unphosphorylated control peptides in reference flow cells were indistinguishable from buffer-treated reference flow cells when injected with SHP-1. The chip surface was then conditioned with 5 × 5-min injections of HBS-EP. SHP-1 protein in HBS-EP with 1 mM dithiothreitol was then injected over reference and experimental flow cells in series for 5 min at the indicated concentrations. All SPR data were converted from the reference-subtracted data (in resonance units) to fraction bound by dividing the resonance units by the theoretical maximum resonance units expected if the experimental flow cell was saturated with bound SHP-1.
To determine the concentration of peptide in the assays, we first needed a conversion factor between the resonance units and the mass of peptide at the chip surface. We determined this conversion factor by injecting four concentrations of SHP-1 over a control flow cell on a CM5 chip and plotting the mass of SHP-1 injected against the raw resonance unit change. We repeated this on seven flow cells across four sensor chips to get an average slope of 149 ± 15 RU per g/liter (±SEM). […]

PEG12-ITIM peptide = test: Solution phosphatase assay (inorganic phosphate release); assay type: biochemical, mouse; settings: PEG12-ITIM 10 μM, pH 7.4, 10°C, BIOMOL Green; fit of progress curves
Procedure: Purified SHP-1 was mixed with PEG12-ITIM peptide at 10 μM, in 10 mM Hepes (pH 7.4), 150 mM NaCl, 3 mM EDTA, 0.005% Surfactant P20, and 1 mM dithiothreitol (Sigma). Temperature was regulated to 10°C with a thermocycler heat block, and the production of inorganic phosphate was measured at the indicated time points using BIOMOL Green (Enzo Life Sciences).
The resulting progress curves (Fig. 1B) were fit using a standard mathematical model ([20]) based on the following reaction scheme F+S^*⇌koffkonCkcat⇀F+S where F is the phosphatase, S* is the phosphorylated peptide substrate, S is the unphosphorylated peptide product, and C is the intermediate enzyme-substrate complex. This reaction scheme corresponds to the following coupled ODEs ∂F/∂t=−konFS*+(koff+kcat)C∂S*/∂t=−konFS*+koffC∂C/∂t=konFS*−(koff+kcat)C∂S/∂t=kcatC with the following conservation equations for the enzyme and substrate, FT=E+CST=S*+C+S where FT is the initial SHP-1 concentration and ST is the initial concentration of phosphorylated substrate. A common assumption for in vitro solution-based enzyme assays is that the enzyme-substrate complex (C) changes on a […] time scale compared to the time scale of product formation (that is, ∂C/∂t ≈ 0). Using this quasi–steady-state approximation, which is valid when E ≪ S + Km ([46], [47]), we find C = FTS^∗/(Km + S^∗). […] The initial condition is S(t = 0) = 0. […]

PEG28-ITIM [2] = test: SPR of SHP-1 injected over immobilised PEG28-ITIM: tethered/solution catalysis and reach (MPDPDE fit); assay type: biochemical, mouse
Procedure: as §1, §2, §3
To determine the concentration of peptide in the assays, we first needed a conversion factor between the resonance units and the mass of peptide at the chip surface. We determined this conversion factor by injecting four concentrations of SHP-1 over a control flow cell on a CM5 chip and plotting the mass of SHP-1 injected against the raw resonance unit change. We repeated this on seven flow cells across four sensor chips to get an average slope of 149 ± 15 RU per g/liter (±SEM). This constant, together with the molecular weight of the peptide, was used to convert between the resonance units of peptides immobilized and the molar concentration at the chip surface. For example, 48.5 RU of PEG28-ITIM (molecular weight, 3221) was immobilized to obtain [peptide] = 97.1 μM (Fig. 2A).
From the MPDPDE model–simulated SPR traces, one would predict that the kcat*(solution) (fig. S4, G and H) and L (fig. S4F) are likely to be very sensitive to small systematic errors in the SPR trace at longer time scales. Nonspecific binding and baseline drift are two well-known sources of such systemic errors that can produce artifacts at long time scales (see fig. S6A for examples). To exclude data affected by these artifacts, we propose a simple quality control check that greatly improves the accuracy of estimating L, kcat*(tethered) , and kcat*(solution) . As a measure of the signal-to-noise ratio at long time points, we took the resonance units 20 s after the injection was completed (noise) and divided it by the resonance units 20 s before the injection finished (signal). […] Data that had evidence of significant artifact were excluded from the study based on this criterion (red data points in fig. S6B). […]

bivalent reactions (in words) (PEG28-ITIM [1]): no evidence for bivalent reactions
Substance: SHP-1: murine SHP-1 tyrosine phosphatase with an N-terminal 6× His tag, expressed in E. coli
k*cat (= kcat/Km), overall catalytic rate in solution (PEG12-ITIM peptide): 0.0068 µM⁻¹ s⁻¹
L (reach parameter), SH2 variants (PEG28-ITIM [2]; SHP-1 variants over PEG28-ITIM, average fit Fig. 6B: WT n = 15, N-SH2 mutant n = 3, C-SH2 mutant n = 9): 23.0 nm
share of time spent in open active conformation in solution (PEG28-ITIM [2]; assuming complete open transition on SH2 binding, kcat*(solution) = 0.05 kcat*(tethered)): 5%
k*cat (tethered) (PEG28-ITIM [2]; average of all experiments Fig. 4C, n = 15, SEM printed ± 1.3 × 10^-2, wild-type SHP-1, PEG28-ITIM, 10°C, HBS-EP pH 7.4): 0.0118 µM⁻¹ s⁻¹
L (reach parameter) (PEG28-ITIM [2]; average of all experiments Fig. 4C, n = 15, SEM ± 0.46, wild-type SHP-1, PEG28-ITIM, 10°C, HBS-EP pH 7.4): 23 nm
k*cat (solution) (PEG28-ITIM [2]; average of all experiments Fig. 4C, n = 15, SEM ± 1.15 × 10^-4, wild-type SHP-1, PEG28-ITIM, 10°C, HBS-EP pH 7.4): 0.000603 µM⁻¹ s⁻¹
increase in tethered over solution catalytic rate (allosteric activation) (PEG28-ITIM [2]; wild-type SHP-1, PEG28-ITIM, kcat*(tethered) versus kcat*(solution)): 20 fold
